Consider 2 compounds from patent publication US20240100083A1, “IMMUNOTHERAPY FOR CANCER” (THE PROVOST, FELLOWS, FOUNDATION SCHOLARS, AND THE OTHER …, priority 2020, published 2024).

The assay has as its system B16 melanoma cells. Nature of the assay: costimulatory/co-inhibitory molecule expression on B16 melanoma cells (flow cytometry). The conditions noted are these: 24 hours, C90, C100, protasan 40 μg/ml, CpG 4 μg/ml, Etoposide 200 μM, DMXAA 10 μg/ml; for Fold increase in MFI Coinhibitory PD-1 / Fold increase in MFI Coinhibitory PD-L1 / Fold increase in MFI Coinhibitory TIGIT / Fold increase in MFI Costimulatory CD40 / Fold increase in MFI Costimulatory CD80 / Fold increase in MFI Costimulatory CD86 / Fold increase in MFI Costimulatory MHC CI: compared to unstimulated control. The format is cell-based. Also noted: key to Upregulated (√)/No change (—) Costimulatory MHC CI / Upregulated (√)/No change (—) Costimulatory CD40 / Upregulated (√)/No change (—) Costimulatory CD80 / Upregulated (√)/No change (—) Costimulatory CD86 / Upregulated (√)/No change (—) Coinhibitory TIGIT / Upregulated (√)/No change (—) Coinhibitory PD-L1 / Upregulated (√)/No change (—) Coinhibitory PD-1: upregulated (√); no change (—). The protocol:
Flow cytometric analysis of costimulatory molecule expression on B16-F10 cells: 2×10^5 B16 melanoma cells were stimulated with media or 40 μg/ml, C90, C100 or protasan for 24 hours in 24 well plates. Cells were removed from wells using ice cold PBS-EDTA, transferred to labelled FACS tubes and washed with 2 mL of PBS. Cells were stained with BV510 viability dye (1 in 1000 dilition) for 15 minutes at room temperature. Cells were then washed in PBS, and stained for cell surface markers for 30 minutes at room temperature. Cells were then washed in PBS, resuspended in […] of FACs buffer, with samples acquired via BD FACSCanto and the data analysed using Flowjo™ software (Treestar, Oregon).

With `COc1cc([C@@H]2c3cc4c(cc3[C@@H](O[C@@H]3O[C@@H]5CO[C@@H](C)O[C@H]5[C@H](O)[C@H]3O)[C@H]3COC(=O)[C@H]23)OCO4)cc(OC)c1O` [Etoposide], the “Upregulated (√)/No change (—) Coinhibitory PD-1” value is on record as “—”, the “Upregulated (√)/No change (—) Coinhibitory PD-L1” value is “√”, the “Upregulated (√)/No change (—) Coinhibitory TIGIT” value is listed as “√ √” and the “Upregulated (√)/No change (—) Costimulatory CD40” value is “√ √”. In addition, the “Upregulated (√)/No change (—) Costimulatory CD80” value was “√ √”, the “Upregulated (√)/No change (—) Costimulatory CD86” value is on record as “√ √”, the “Upregulated (√)/No change (—) Costimulatory MHC CI” value is listed as “√ √ √” and the “Fold increase in MFI Coinhibitory PD-1” value was found to be 1.0 fold. The “Fold increase in MFI Coinhibitory PD-L1” value turned out to be 1.6 fold, the “Fold increase in MFI Coinhibitory TIGIT” value is reported as 1.7 fold, the “Fold increase in MFI Costimulatory CD40” value worked out at 1.9 fold and the “Fold increase in MFI Costimulatory CD80” value is recorded as 2.2 fold. Besides, the “Fold increase in MFI Costimulatory CD86” value turned out to be 1.9 fold and the “Fold increase in MFI Costimulatory MHC CI” value is on record as 3.0 fold.

With `Cc1ccc2c(=O)c3cccc(CC(=O)O)c3oc2c1C` [DMXAA], the “Upregulated (√)/No change (—) Coinhibitory PD-1” value is listed as “√”, the “Upregulated (√)/No change (—) Coinhibitory PD-L1” value was “√”, the “Upregulated (√)/No change (—) Coinhibitory TIGIT” value is reported as “√” and the “Upregulated (√)/No change (—) Costimulatory CD40” value is on record as “—”. Moreover, the “Upregulated (√)/No change (—) Costimulatory CD80” value is “—”, the “Upregulated (√)/No change (—) Costimulatory CD86” value is given as “—”, the “Upregulated (√)/No change (—) Costimulatory MHC CI” value is given as “√” and the “Fold increase in MFI Coinhibitory PD-1” value is 1.2 fold. For the same compound, the “Fold increase in MFI Coinhibitory PD-L1” value was 1.2 fold, the “Fold increase in MFI Coinhibitory TIGIT” value is listed as 1.3 fold, the “Fold increase in MFI Costimulatory CD40” value is on record as 1.1 fold and the “Fold increase in MFI Costimulatory CD80” value is given as 1.0 fold. In addition, the “Fold increase in MFI Costimulatory CD86” value is on record as 1.1 fold and the “Fold increase in MFI Costimulatory MHC CI” value is reported as 1.2 fold.
